Results as given in article PMC8517038 (Molecular psychiatry, 2021).
Where two headings read alike, the source gives them in different places.

Tests used:
drug self-administration = experiment: Intravenous self-administration in rats; assay type: in vivo; details: for dose response curve of self-administration: 0.125, 0.25, 0.5, 1.0 mg/kg/infusion, FR1; for extinction of drug self-administration: after retraining on FR1; for self-administration during training: male and female rats, 0.5 mg/kg/infusion, FR1 20-s timeout, 16 sessions
MOR [1] = target: T1, MOR (Homo sapiens, UniProt P35372); experiment: β-arrestin recruitment BRET in transfected HEK-293 cells; assay type: cell-based
T1 sequence (P35372 whole entry): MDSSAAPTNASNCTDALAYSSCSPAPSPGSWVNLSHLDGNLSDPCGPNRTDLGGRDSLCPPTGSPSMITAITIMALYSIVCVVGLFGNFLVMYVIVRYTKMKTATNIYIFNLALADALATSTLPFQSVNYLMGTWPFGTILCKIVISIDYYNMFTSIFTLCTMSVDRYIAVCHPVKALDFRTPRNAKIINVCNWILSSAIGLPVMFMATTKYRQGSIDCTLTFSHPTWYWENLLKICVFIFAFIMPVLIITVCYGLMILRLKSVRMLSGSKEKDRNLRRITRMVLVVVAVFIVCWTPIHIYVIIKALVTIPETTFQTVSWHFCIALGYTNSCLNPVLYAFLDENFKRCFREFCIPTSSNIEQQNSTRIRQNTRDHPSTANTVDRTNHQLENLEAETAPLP

Sigma-1 = Sigma-1 (Rattus norvegicus, UniProt Q9R0C9); experiment: Competitive radioligand binding, [3H]
Sigma-1, sequence (Q9R0C9 whole entry): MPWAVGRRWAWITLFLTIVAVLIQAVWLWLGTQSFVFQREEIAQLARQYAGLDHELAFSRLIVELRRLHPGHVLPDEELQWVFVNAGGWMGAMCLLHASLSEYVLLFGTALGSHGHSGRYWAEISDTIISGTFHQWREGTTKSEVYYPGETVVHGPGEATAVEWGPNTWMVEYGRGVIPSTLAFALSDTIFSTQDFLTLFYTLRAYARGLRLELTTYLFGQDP

[2] = target: PCP binding site of the NMDAR (Rattus norvegicus, UniProt P35439); experiment: Binding and enzyme target profile screen; details: 10 μM
KOR [3] = target: T2, KOR (Homo sapiens, UniProt P41145); experiment: cAMP accumulation BRET; assay type: cell-based
T2 sequence (P41145 whole entry): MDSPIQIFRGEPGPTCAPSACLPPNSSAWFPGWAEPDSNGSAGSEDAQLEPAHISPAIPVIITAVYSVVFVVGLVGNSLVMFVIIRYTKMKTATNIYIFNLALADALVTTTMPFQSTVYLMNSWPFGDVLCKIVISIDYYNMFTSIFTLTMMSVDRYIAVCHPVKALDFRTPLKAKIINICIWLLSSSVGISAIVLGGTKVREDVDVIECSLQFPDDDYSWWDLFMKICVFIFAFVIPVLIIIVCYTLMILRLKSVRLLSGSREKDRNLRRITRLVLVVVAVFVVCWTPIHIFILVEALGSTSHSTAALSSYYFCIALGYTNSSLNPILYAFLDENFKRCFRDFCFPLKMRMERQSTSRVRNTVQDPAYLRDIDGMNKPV

[4] = tested on: methamphetamine-induced locomotion; details: 10 mg/kg/day, twice weekly for 8 weeks; cited from earlier work
mu-opioid receptor (MOR) = mu-opioid receptor (MOR) (Homo sapiens, UniProt P35372); experiment: Binding and enzyme target profile screen; details: 10 μM
mu-opioid receptor (MOR), sequence (P35372 whole entry): as the sequence (P35372 whole entry) above

[5] = tested on: conditioned place preference; experiment: Conditioned place preference in mice; assay type: in vivo; details: male mice, 10 mg/kg IP, 6 days pairing
dopamine tone [6] = experiment: [18F]-Fallypride PET; assay type: in vivo, rat; details: 10 mg/kg IV infusion for 40 min
dopamine tone [7] = details: awake monkeys; cited from earlier work
KOR [8] = target: T2, KOR; experiment: Binding and enzyme target profile screen
KOR [9] = target: T2, KOR; experiment: β-arrestin recruitment BRET in transfected HEK-293 cells; assay type: cell-based
locomotor activity = experiment: Locomotor activity in mice; assay type: in vivo; details: for acute locomotor activity: male mice, 5, 10 and 20 mg/kg IP every 30 min
MOR [10] = target: T1, MOR; experiment: cAMP accumulation BRET; assay type: cell-based
locomotor sensitization = experiment: Locomotor; assay type: in vivo; details: male mice; for locomotor (psychomotor) sensitization over days: 20 mg/kg IP for 3 days
[11] = tested on: NMDARs over opioid receptors; details: canonical high affinity NMDAR antagonist; no reference given; cited from earlier work
[12] = tested on: morphine CPP and opioid withdrawal; details: mice; cited from earlier work
[13] = tested on: conditioned place preference; details: 40 mg/kg IP, cited from earlier work

| SMILES | dose response curve of self-administration (drug self-administration) | extinction of drug self-administration (drug self-administration) | self-administration during training (drug self-administration) | activation of the β-arrestin pathway, MOR (MOR [1]) | hit (>50% inhibition) at PCP binding site of the NMDAR [2] | mode of action at KOR, cAMP assay (KOR [3]) | hit (>50% inhibition) at MOR (mu-opioid receptor (MOR)) | conditioned place preference for drug-paired chamber [5] | global extracellular dopamine levels in the dorsal striatum ([18F]fallypride) (dopamine tone [6]) | activation of the β-arrestin pathway, KOR (KOR [9]) | acute locomotor activity (locomotor activity) | mode of action at MOR, cAMP assay (MOR [10]) | locomotor activity after 20 mg/kg IP injection (locomotor sensitization) | locomotor (psychomotor) sensitization over days (locomotor sensitization) | further results |
| --- | --- | --- | --- | --- | --- | --- | --- | --- | --- | --- | --- | --- | --- | --- | --- |
| CN[C@]1(c2ccccc2Cl)CCCCC1=O [(S)-ketamine] | characteristic inverted U-shaped dose response curve | rapid extinction of drug seeking | self-administered (S)-ketamine with a significant escalation of drug intake | Neither (S)- nor (R)-ketamine activated | positive hit | full agonist | identified as a hit for (S)-ketamine | significant preference for the (S)-ketamine-paired chamber | Neither (S)- nor (R)-ketamine significantly changed | Neither (S)- nor (R)-ketamine activated | more potent than (R)-ketamine in increasing locomotor activity | partial agonist | increased locomotor activity | showed locomotor sensitization over days | average self-administered intake (drug self-administration; dose response test): ~ 15 mg/kg/h; Ki (Sigma-1): 131 ± 15 µM; EC50 (KOR [3]): 16 ± 4 µM; Emax (KOR [3]; HEK293, read-out: Emax KOR, cAMP assay): 84 ± 5%; methamphetamine-induced locomotion in mice [4]: led to increased methamphetamine-induced locomotion; [11C]raclopride binding (dopamine tone) (dopamine tone [7]): decreases in [^11C]raclopride binding; inhibition at 10 µM (KOR [8]; read-out: inhibition of KOR binding): ~35%; EC50 (MOR [10]): 9 ± 2 µM; Emax (MOR [10]; HEK293, read-out: Emax MOR, cAMP assay): 48 ± 3% |
| C[C@]12N[C@H](Cc3ccccc31)c1ccccc12 [MK-801] | – | – | – | – | – | – | – | – | – | – | – | – | – | – | selectivity for NMDAR over opioid receptors [11]: ~ 1000 fold |
| O=C1CC[C@@]2(O)[C@H]3Cc4ccc(O)c5c4[C@@]2(CCN3CC2CC2)[C@H]1O5 [naltrexone] | – | – | – | – | – | – | – | – | – | – | – | – | – | – | effect on (S)-ketamine-induced locomotor activity (locomotor activity; naltrexone 10 mg/kg IP pretreatment, male mice): partially blocked |
| CN[C@@]1(c2ccccc2Cl)CCCCC1=O [(R)-ketamine] | did not show this pattern of responding | rapid extinction of drug seeking | weaker and less reliable | Neither (S)- nor (R)-ketamine activated | positive hit | weaker partial agonist | not for (R)-ketamine | not for the (R)-ketamine-paired chamber | Neither (S)- nor (R)-ketamine significantly changed | Neither (S)- nor (R)-ketamine activated | increasing it only at the 20 mg/kg dose | weaker partial agonist | increased locomotor activity | but not (R)-ketamine induced psychomotor sensitization | morphine CPP and naloxone-precipitated opioid withdrawal [12]: decreases morphine CPP and naloxone-precipitated opioid withdrawal; Ki (Sigma-1; read-out: Ki sigma-1, rat whole brain, [3H](+)pentazocine): 27 ± 3 µM; Emax KOR, cAMP assay (KOR [3]; % morphine maximum response): < 50%; EC50 (KOR [3]; read-out: EC50 KOR, cAMP assay, HEK-293 transfected with KOR): > 100 µM; CPP in mice ([13]; ref 68): did not produce CPP; CPP in mice ([13]; ref 71): produced CPP in mice; inhibition of KOR binding (KOR [8]; 10 μM): ~ 13%; Emax MOR, cAMP assay (MOR [10]; % morphine maximum response): 39 ± 3%; EC50 (MOR [10]; read-out: EC50 MOR, cAMP assay, HEK-293 transfected with MOR): 34 ± 14 µM; cross-sensitization to (S)-ketamine (locomotor sensitization; repeated 20 mg/kg IP): did not cross-sensitize to (S)-ketamine |
